Laboratory results as given in patent US20100196516A1, “TREATMENT OF INFECTIONS BY CARBON MONOXIDE” (priority 2007, published 2010).
Entries after “also recorded” stand apart in the source; their conditions may differ.

Legend:
S. aureus NCTC8325 = assay type: cell-based, Staphylococcus aureus; details: for effect on viability / growth of S. aureus: CO gas flux 15 min, CORM-2 250 μM, CORM-3 500 or 400 nM (so in the source), Formula IV 600 μM, Formula V 50 μM, LB medium; for bactericidal effect on S. aureus in the presence of Hb: with CO scavenger Hb, bovine, 20 μM
Experimental: (§1) Bacterial strains and growth conditions: E. coli K-12 ATCC 23716 and S. aureus NCTC8325 were grown in minimal salts (MS) medium (1.3% [wt/vol] Na2HPO4, 0.3% [wt/vol] KH2PO4, 0.05% [wt/vol] NaCl, and 0.1% [wt/vol] NH4Cl supplemented with 20 mM glucose, 2 mM MgSO4, 100 μM CaCl2, and 0.25% [wt/vol] Casamino Acids) and in Luria-Bertani (LB) medium (1% [wt/vol] tryptone, 0.5% [wt/vol] yeast extract, and 1% [wt/vol] NaCl), respectively, under different oxygen supply conditions. Aerobic experiments were undertaken with flasks filled to one-fifth of their volume, microaerobic tests were conducted with closed flasks filled to one-half of their volume, and anaerobic conditions were produced in rubber-sealed flasks that, once filled with medium and closed, were extensively fluxed with nitrogen gas.
(§2) CO gas and CORM treatment: Overnight cultures of E. coli or S. aureus grown in LB or tryptic soy broth, respectively, were used to inoculate fresh MS medium (E. coli) or LB medium (S. aureus), and the cultures on fresh medium were incubated at 37° C. under the required aeration conditions to an optical density at […] of 0.3. At this point, cells were exposed to a flux of CO gas for 15 min or to CORMs. Untreated cells were bubbled with nitrogen gas or treated with dimethyl sulfoxide, water, or methanol, depending on the solvent used to dissolve the CORM.
(§3) Viability assays: The number of viable cells was evaluated by measuring the CFU per milliliter upon plating serial dilutions of the various cultures onto agar plates. The percent survival was calculated as the number of colonies originated by treated cultures divided by the number of colonies formed upon the plating of untreated cultures. Sensitivity tests were conducted by plating 5 μl serial dilutions of cultures grown for 4 h and treated with CORMs, with or without the CO scavenger hemoglobin (Hb [bovine form used at 20 μM; Sigma]), onto agar.

E. coli K-12 ATCC 23716 = assay type: cell-based, Escherichia coli; details: for effect on viability / growth of E. coli: CO gas flux 15 min, CORM-2 250 μM, CORM-3 400 μM, Formula IV 500 μM aerobic or 200 μM anaerobic, Formula V 50 μM, MS medium; for bactericidal effect on E. coli in the presence of Hb: with CO scavenger Hb, bovine, 20 μM
Experimental: as §1, §2, §3

bacteria = assay: Bactericidal effect / bacterial growth, bacterium not given; assay type: cell-based; details: for bactericidal properties or altered growth kinetics of decomposition products: same concentration as compound of Formula V (50 μM), data not shown
Experimental: as §2
as §3, with “agar. The experiments were performed with a minimum of three independent cultures, and the results are presented in the figures as averaged values with error bars representing one standard deviation.” for “agar.”

S. aureus = assay: MIC and MBC by tube dilution test; assay type: cell-based, Staphylococcus aureus; details: minimal medium, at least 18 h at 37° C.
Experimental: (§4) The investigation of MICs and minimal bactericidal concentrations (MBCs) was carried out by the tube dilution test. Briefly, 2.5 ml of minimal medium was inoculated with an overnight culture of E. coli or S. aureus to give an optical density at 600 nm of 0.005 to 0.01. Different concentrations of CORM-2, between 150 μM and 2 mM, were added to the diluted suspensions in the wells of 24-well plates, and the plates were incubated for at least 18 h at 37° C. and 90 rpm. The concentration of CORM-2 in the first well in the series with no sign of visible growth was reported as the MIC. […] After incubation at 37° C. for 24 h, the lowest concentration of CORM-2 in a culture with no growth was assumed to be the MBC.

hemoglobin (Hb) = target: T1, hemoglobin (Hb) (Bos taurus, UniProt P01966+P02070); assay: Transfer of CO from CORMs to Hb (carbonylation, shift of Soret band); assay type: biochemical, bovine
T1 construct: purchased Sigma

H. pylori 26695 = assay: Diffusion disk assay, inhibition halos; assay type: cell-based, Helicobacter pylori; details: paper disks, 15 μl; 200 mM CORM-2; 150 mM Formula II and Formula III; 24-36 hours
[1] = CO release kinetics: CO released into medium by CORMs (gas chromatography); assay type: physicochemical; details: media utilized (MS, LB), time scale of the experiment
Experimental: CO release kinetics: CORMs were mixed with MS or LB medium in sealed vessels, and the vessels were incubated at room temperature under constant stirring and protected from light. Gas samples were collected after 30 min and 4 h and analyzed using a gas chromatograph (Thermo Finnigan Trace) equipped with a CTRI column (Alltech) and a thermal conductivity detector. The CO released was quantified using a calibration curve recorded prior to the reaction course.

E. coli = assay: MIC and MBC by tube dilution test; assay type: cell-based, Escherichia coli; details: minimal medium, at least 18 h at 37° C.
Experimental: as §4

T1 sequence (P01966 2-142): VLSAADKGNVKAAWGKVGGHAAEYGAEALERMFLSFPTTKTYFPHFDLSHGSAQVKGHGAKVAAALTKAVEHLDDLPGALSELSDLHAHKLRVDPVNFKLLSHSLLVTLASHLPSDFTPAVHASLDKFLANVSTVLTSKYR
T1 sequence (P02070 whole entry): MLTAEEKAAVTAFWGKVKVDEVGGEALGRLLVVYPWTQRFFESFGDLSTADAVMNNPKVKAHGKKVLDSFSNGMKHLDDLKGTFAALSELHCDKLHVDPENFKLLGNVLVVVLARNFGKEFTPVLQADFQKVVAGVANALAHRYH

## [C-]#[O+] [CO gas, Carbon monoxide]
S. aureus NCTC8325
  effect on viability / growth of S. aureus: significant growth impairment
E. coli K-12 ATCC 23716
  effect on viability / growth of E. coli: significant growth impairment
bacteria; CO administered as gas
  concentration of CO needed to become effective as a bactericide: ca. 1 mM

## [C-]#[O+].[C-]#[O+].[C-]#[O+].[C-]#[O+].[C-]#[O+].[C-]#[O+].[Cl][Ru][Cl].[Cl][Ru][Cl] [CORM-2, tricarbonyldichlororuthenium(II) dimer, reference compound]
S. aureus
  MBC/MIC ratio: 1.0
Hemoglobin (Hb)
  time for carbonylation of Hb (in words): within the mixing time
S. aureus NCTC8325
  effect on viability / growth of S. aureus: significantly diminished
E. coli K-12 ATCC 23716
  effect on viability / growth of E. coli: significantly diminished
H. pylori 26695
  bactericidal effect on H. pylori (inhibition halos): bactericidal effect
[1]
  release of CO gas upon dissolution in the medium (in words): neither CORM-2 nor CORM-3 releases CO gas
E. coli
  MBC/MIC ratio: 1.5

## NCC(=O)O.[CH+]=O.[CH+]=O.[CH+]=O.[Cl][Ru] [CORM-3, tricarbonylchloro(glycinato)ruthenium(II), reference compound]
Hemoglobin (Hb)
  time for carbonylation of Hb (in words): within the mixing time
S. aureus NCTC8325
  effect on viability / growth of S. aureus: strongly decreased the viability
E. coli K-12 ATCC 23716
  effect on viability / growth of E. coli: strongly decreased the viability
[1]
  release of CO gas upon dissolution in the medium (in words): neither CORM-2 nor CORM-3 releases CO gas

## O=[C][Mo]12([C]=O)([C]=O)[O]C(=O)CN(CCN(CC(=O)O)CC(=O)[O]1)CCN(CC(=O)O)CC(=O)[O]2 [compound of Formula III]
H. pylori 26695
  bactericidal effect on H. pylori (inhibition halos): bactericidal effect

## O=[C]=[Mn]([Br])(=[C]=O)(=[C]=O)(=[C]=O)=[C]=O [compound of Formula IV, bromo(pentacarbonyl)manganese]
S. aureus NCTC8325
  effect on viability / growth of S. aureus: strongly reducing the viability
  bactericidal effect on S. aureus in the presence of Hb: completely eliminated the harmful action
E. coli K-12 ATCC 23716
  effect on viability / growth of E. coli: strongly reducing the viability; also recorded: more effective in reducing the viability of E. coli cells grown anaerobically
  bactericidal effect on E. coli in the presence of Hb: completely eliminated the harmful action
[1]
  release of CO gas upon dissolution in the medium (in words): rather small amounts

## CC[N+](CC)(CC)CC.O=[C]=[Mo-]([Br])(=[C]=O)(=[C]=O)(=[C]=O)=[C]=O [compound of Formula V, tetraethylammonium molybdenum pentacarbonyl bromide]
S. aureus NCTC8325
  effect on viability / growth of S. aureus: strongly reducing the viability
  bactericidal effect on S. aureus in the presence of Hb: completely eliminated the harmful action
E. coli K-12 ATCC 23716
  effect on viability / growth of E. coli: strongly reducing the viability
  bactericidal effect on E. coli in the presence of Hb: completely eliminated the harmful action
[1]
  release of CO gas upon dissolution in the medium (in words): rather small amounts

## [Na+].[Na+].[O]=[Mo](=[O])([O-])[O-] [sodium molybdate]
bacteria
  bactericidal properties or altered growth kinetics of decomposition products: None of these compounds had bactericidal properties or altered growth kinetics

## CC[N+](CC)(CC)CC.[Br-] [tetraethyl ammonium bromide]
bacteria
  bactericidal properties or altered growth kinetics of decomposition products: None of these compounds had bactericidal properties or altered growth kinetics
